Measurements as given in patent US20250313574A1, “SIALIC ACID DERIVATIVES AND METHODS OF USING SAME” (EISAI R&D MANAGEMENT CO., LTD., priority 2022, published 2025).

How the values were obtained:
[1] = molecular target: Recombinant human CD33 protein (Homo sapiens (Human), UniProt P20138); assay: CD33 competitive binding assay for HTS drug screen (fluorescent multivalent sialic acid probe)
In short: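 Recombinant human CD33, coated overnight at 4° C from 10 μg/ml in pH 5.5 acetate, was preincubated briefly with compound. It was then exposed to a multivalent neutravidin/FITC/sialic acid analog A-375 probe (final 5 μM neutravidin, 15 μM A-375, 5 μM FITC) for 30 min at room temperature. After washing, bound FITC fluorescence was read.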

[2] = molecular target: Recombinant Human Siglec-3/CD33 protein (His-CD33) (Homo sapiens (Human), UniProt P20138); assay: Differential scanning fluorimetry (DSF) thermal shift assay; type: binding; conditions: difference in thermal melt of CD33 protein (0.5 μM) with 50 μM compound
Recombinant Human Siglec-3/CD33 protein (His-CD33), sequence (P20138 18-259): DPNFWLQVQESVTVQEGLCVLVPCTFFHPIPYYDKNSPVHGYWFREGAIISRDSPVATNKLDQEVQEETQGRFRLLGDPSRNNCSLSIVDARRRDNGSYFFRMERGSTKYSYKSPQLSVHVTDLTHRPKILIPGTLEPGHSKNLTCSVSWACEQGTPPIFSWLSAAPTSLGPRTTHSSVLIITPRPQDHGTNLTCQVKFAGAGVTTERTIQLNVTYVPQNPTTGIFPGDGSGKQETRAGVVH

Recombinant human CD33 protein, sequence (P20138 18-259): as above

SMILES	EC50 [1]	DSF (dTmD) [2]
CC(=O)N[C@H]1[C@H]([C@H](O)[C@H](O)CNC(=O)c2cc(C)c(O)c(C)c2)O[C@@](C/C=C/c2cccc(CNC(=O)c3cccc(Nc4nccs4)c3)c2)(C(=O)O)C[C@@H]1O [A-241]	7970 nM	5.3 °C
CC(=O)N[C@H]1[C@H]([C@H](O)[C@H](O)CNC(=O)c2cc(C)c(O)c(C)c2)O[C@@](C/C=C/c2cccc(CNC(=O)C3(C)COC3)c2)(C(=O)O)C[C@@H]1O [A-244]	9560 nM	0.8 °C
CC(=O)N[C@H]1[C@H]([C@H](O)[C@H](O)CNC(=O)c2cc(C)c(O)c(C)c2)O[C@@](C/C=C/c2cccc(CNC(=O)c3cccc(NCc4nc(C)cs4)c3)c2)(C(=O)O)C[C@@H]1O [A-245]	9460 nM	1.2 °C
CC(=O)N[C@H]1[C@H]([C@H](O)[C@H](O)CNC(=O)c2cc(C)c(O)c(C)c2)O[C@@](C/C=C/c2cccc(CNC(=O)c3cccc(NC(C)(C)C)c3)c2)(C(=O)O)C[C@@H]1O [A-251]	9790 nM	4.3 °C
CC(=O)N[C@H]1[C@H]([C@H](O)[C@H](O)CNC(=O)c2cc(C)c(O)c(C)c2)O[C@@](C/C=C/c2cccc(CNC(=O)C3CCC(Nc4ncccn4)C3)c2)(C(=O)O)C[C@@H]1O (stereo partly drawn) [A-255]	4460 nM	4.2 °C
CC(=O)N[C@H]1[C@H]([C@H](O)[C@H](O)CNC(=O)c2cc(C)c(O)c(C)c2)O[C@@](C/C=C/c2cccc(CNC(=O)C3CCC(Nc4ccc(C(N)=O)cn4)CC3)c2)(C(=O)O)C[C@@H]1O (stereo partly drawn) [A-258]	9370 nM	0.8 °C
CC(=O)N[C@H]1[C@H]([C@H](O)[C@H](O)CNC(=O)c2cc(C)c(O)c(C)c2)O[C@@](C/C=C/c2cccc(CNC(=O)C3CCCC(Nc4ccc(C)cn4)C3)c2)(C(=O)O)C[C@@H]1O (stereo partly drawn) [A-259]	5810 nM	3.1 °C
Cc1cc(C(=O)NC[C@@H](O)[C@@H](O)[C@@H]2O[C@@](C/C=C/c3cccc(CNC(=O)C4CCCOC4)c3)(C(=O)O)C[C@H](O)[C@H]2NC(=O)Cn2cc(C3CCCCC3)nn2)cc(C)c1O (stereo partly drawn) [A-260]	7940 nM	4.2 °C
Cc1cc(C(=O)NC[C@@H](O)[C@@H](O)[C@@H]2O[C@@](C/C=C/c3cccc(CNC(=O)c4cccc(Cl)c4)c3)(C(=O)O)C[C@H](O)[C@H]2NC(=O)Cn2cc(C3CCCCC3)nn2)cc(C)c1O [A-262]	6030 nM	1.9 °C
Cc1cc(C(=O)NC[C@@H](O)[C@@H](O)[C@@H]2O[C@@](C/C=C/c3cccc(CNC(=O)c4ccc(Cl)cc4)c3)(C(=O)O)C[C@H](O)[C@H]2NC(=O)Cn2cc(C3CCCCC3)nn2)cc(C)c1O [A-263]	4000 nM	3.5 °C
Cc1cc(C(=O)NC[C@@H](O)[C@@H](O)[C@@H]2O[C@@](C/C=C/c3cccc(CNC(=O)C4CCCC4)c3)(C(=O)O)C[C@H](O)[C@H]2NC(=O)Cn2cc(C3CCCCC3)nn2)cc(C)c1O [A-264]	6330 nM	5.5 °C

Continued by falling EC50 [1], values first:

EC50 [1]	DSF (dTmD) [2]	SMILES
4000 nM	2.2 °C	CC(=O)N[C@H]1[C@H]([C@H](O)[C@H](O)CNC(=O)c2cc(C)c(O)c(C)c2)O[C@@](C/C=C/c2cccc(CNC(=O)c3cccc(NCc4cncs4)c3)c2)(C(=O)O)C[C@@H]1O [A-246]
3260 nM	8.4 °C	CC(=O)N[C@H]1[C@H]([C@H](O)[C@H](O)CNC(=O)c2cc(C)c(O)c(C)c2)O[C@@](C/C=C/c2cccc(CNC(=O)c3ccc4[nH]c(-c5c[nH]c6ccccc56)cc4c3)c2)(C(=O)O)C[C@@H]1O [A-250]
2170 nM	5.1 °C	CC(=O)N[C@H]1[C@H]([C@H](O)[C@H](O)CNC(=O)c2cc(C)c(O)c(C)c2)O[C@@](C/C=C/c2cccc(CNC(=O)C3CCC[C@H](Nc4ncccn4)C3)c2)(C(=O)O)C[C@@H]1O (stereo partly drawn) [A-256]
1600 nM	5.9 °C	CC(=O)N[C@H]1[C@H]([C@H](O)[C@H](O)CNC(=O)c2cc(C)c(O)c(C)c2)O[C@@](C/C=C/c2cccc(CNC(=O)c3ccc(NC(C)(C)C)cc3)c2)(C(=O)O)C[C@@H]1O [A-257]
1440 nM	4.4 °C	Cc1cc(C(=O)NC[C@@H](O)[C@@H](O)[C@@H]2O[C@@](C/C=C/c3cccc(CNC(=O)C4CCOCC4)c3)(C(=O)O)C[C@H](O)[C@H]2NC(=O)Cn2cc(C3CCCCC3)nn2)cc(C)c1O [A-261]
1120 nM	2.2 °C	CC(=O)N[C@H]1[C@H]([C@H](O)[C@H](O)CNC(=O)c2cc(C)c(O)c(C)c2)O[C@@](C/C=C/c2cccc(CNC(=O)c3ccc(NS(C)(=O)=O)cc3)c2)(C(=O)O)C[C@@H]1O [A-239]
682 nM	6.0 °C	CC(=O)N[C@H]1[C@H]([C@H](O)[C@H](O)CNC(=O)c2cc(C)c(O)c(C)c2)O[C@@](C/C=C/c2cccc(CNC(=O)c3ccc4[nH]c(CCO)cc4c3)c2)(C(=O)O)C[C@@H]1O [A-248]
578 nM	7.6 °C	CC(=O)N[C@H]1[C@H]([C@H](O)[C@H](O)CNC(=O)c2cc(C)c(O)c(C)c2)O[C@@](C/C=C/c2cccc(CNC(=O)c3ccc4[nH]c(-c5cccn5-c5ncccn5)nc4c3)c2)(C(=O)O)C[C@@H]1O [A-252]
502 nM	7.6 °C	CC(=O)N[C@H]1[C@H]([C@H](O)[C@H](O)CNC(=O)c2cc(C)c(O)c(C)c2)O[C@@](C/C=C/c2cccc(CNC(=O)c3ccc4[nH]ccc4c3)c2)(C(=O)O)C[C@@H]1O [A-242]
353 nM	8.5 °C	CC(=O)N[C@H]1[C@H]([C@H](O)[C@H](O)CNC(=O)c2cc(C)c(O)c(C)c2)O[C@@](C/C=C/c2cccc(CNC(=O)C3CCC(Nc4cnccn4)CC3)c2)(C(=O)O)C[C@@H]1O (stereo partly drawn) [A-247]
347 nM	9.2 °C	CC(=O)N[C@H]1[C@H]([C@H](O)[C@H](O)CNC(=O)c2cc(C)c(O)c(C)c2)O[C@@](C/C=C/c2cccc(CNC(=O)c3ccc4[nH]c(C)c(C)c4c3)c2)(C(=O)O)C[C@@H]1O [A-238]
255 nM	5.4 °C	CC(=O)N[C@H]1[C@H]([C@H](O)[C@H](O)CNC(=O)c2cc(C)c(O)c(C)c2)O[C@@](C/C=C/c2cccc(CNC(=O)c3ccc4[nH]c(C(C)O)nc4c3)c2)(C(=O)O)C[C@@H]1O (stereo partly drawn) [A-243]
227 nM	6.2 °C	CC(=O)N[C@H]1[C@H]([C@H](O)[C@H](O)CNC(=O)c2cc(C)c(O)c(C)c2)O[C@@](C/C=C/c2cccc(CNC(=O)c3ccc(Nc4ncccn4)cc3)c2)(C(=O)O)C[C@@H]1O [A-240]
224 nM	8.1 °C	CC(=O)N[C@H]1[C@H]([C@H](O)[C@H](O)CNC(=O)c2cc(C)c(O)c(C)c2)O[C@@](C/C=C/c2cccc(CNC(=O)c3ccc4[nH]c(C(C)(C)CO)cc4c3)c2)(C(=O)O)C[C@@H]1O [A-249]
195 nM	9.6 °C	CC(=O)N[C@H]1[C@H]([C@H](O)[C@H](O)CNC(=O)c2cc(C)c(O)c(C)c2)O[C@@](C/C=C/c2cccc(CNC(=O)C3CCC(Nc4ncccn4)CC3)c2)(C(=O)O)C[C@@H]1O (stereo partly drawn) [A-253]
193 nM	9.2 °C	CC(=O)N[C@H]1[C@H]([C@H](O)[C@H](O)CNC(=O)c2cc(C)c(O)c(C)c2)O[C@@](C/C=C/c2cccc(CNC(=O)c3ccc4[nH]c5c(c4c3)CCC(=O)N5C)c2)(C(=O)O)C[C@@H]1O [A-254]
